Experiments:
CDK4/6 = experiment: Western blot, CDK4/6 protein level in B16F10 cells; format: cell-based, mouse
Description: (§1) After B16F10 cells were treated with the compound at different concentrations and for different periods of time, the levels of CDK4 and CDK6 proteins in the cells were measured by Western blot. Firstly, intracellular proteins were extracted and quantified. The cells were lysed with RIPA cell lysate (with a protease inhibitor), and proteins were collected, which were quantified by a BCA protein quantitative determination kit and quantified to the same concentration. Protein denaturation: The proteins were placed in a water bath at 100° C. for 8 minutes to denature the proteins. Loading and gel electrophoresis: The loading amount per cell was generally 20 μL. […] Membrane transfer: The membrane transfer was carried out using a wet transfer instrument, at a constant current of 250 mA for 90 minutes. The PVDF membrane should be soaked with methanol beforehand. Blocking: The PVDF membrane was placed in BSA blocking buffer for 1 h (with slow shaking in a shaker). Incubation with primary antibody: The primary antibody was diluted according to the instructions. The primary antibody was added, followed by incubation overnight at 4° C. Membrane washing: The membrane was washed with TBST washing buffer for 3 times, each time for 10 minutes. Incubation with secondary antibody: The second antibody was added, followed by incubation in a shaker at room temperature for 1 h. […]

mouse B16F10 melanoma = experiment: Anti-tumor experiment in mice in vivo, B16F10 melanoma xenograft model
Description: B16F10 cells (10^6 cells/mouse) were injected subcutaneously into the forelimb of C57BL/6 mice to establish an xenograft model of mouse B16F10 melanoma. When the tumor volume reached 100-200 mm^3, the mice were randomly divided into four groups (n=6). The compound was injected intraperitoneally every day for two weeks, and the body weights and tumor volumes of the mice were measured every two days. The tumor length and width were measured along two orthogonal axes with a vernier caliper, and the tumor volume in the mouse was calculated based on an equation V (mm^3)=(length×width^2)/2.

CDK4 = target: T1, CDK4 (Mus musculus, UniProt P30285); experiment: Western blot, CDK4 degradation in B16F10 cells; format: cell-based; conditions: read-out: DC50 (drug concentration leading to 50% protein degradation) of CDK4
T1 construct: degradation of CDK4 and CDK6 in B16F10 cells; endogenous in cells; host or cells: B16F10
T1 sequence (P30285 1-303): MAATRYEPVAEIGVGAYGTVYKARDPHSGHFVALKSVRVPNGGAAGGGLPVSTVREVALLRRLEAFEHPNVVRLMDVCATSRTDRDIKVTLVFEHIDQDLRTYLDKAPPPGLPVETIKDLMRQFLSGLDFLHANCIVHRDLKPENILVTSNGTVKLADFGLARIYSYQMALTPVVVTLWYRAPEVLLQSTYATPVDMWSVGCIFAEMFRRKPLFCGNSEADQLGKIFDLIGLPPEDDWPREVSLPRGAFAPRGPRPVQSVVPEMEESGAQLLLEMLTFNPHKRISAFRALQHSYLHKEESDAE
Description: as §1

CDK6 = target: T2, CDK6 (Mus musculus, UniProt Q64261); experiment: Western blot, CDK6 degradation in B16F10 cells; format: cell-based; conditions: read-out: DC50 (drug concentration leading to 50% protein degradation) of CDK6
T2 construct: degradation of CDK4 and CDK6 in B16F10 cells; endogenous in cells; host or cells: B16F10
Description: as §1

T2 sequence (Q64261 whole entry): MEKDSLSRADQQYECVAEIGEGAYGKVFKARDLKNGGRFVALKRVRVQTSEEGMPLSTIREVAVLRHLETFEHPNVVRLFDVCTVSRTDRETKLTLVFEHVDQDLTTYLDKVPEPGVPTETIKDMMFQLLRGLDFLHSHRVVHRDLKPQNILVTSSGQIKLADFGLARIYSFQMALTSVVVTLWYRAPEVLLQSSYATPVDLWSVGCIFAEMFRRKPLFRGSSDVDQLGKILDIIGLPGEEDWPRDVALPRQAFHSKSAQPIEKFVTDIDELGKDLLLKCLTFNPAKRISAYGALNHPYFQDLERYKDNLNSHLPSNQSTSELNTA

SMILES: COc1c(C)cnc(Cn2cc(C#CCCn3cc(CNC(=O)CN4CCN(c5ccc(Nc6ncc7c(C)c(C(C)=O)c(=O)n(C8CCCC8)c7n6)nc5)CC4)nn3)c3c(Cl)nc(N)nc32)c1C [Compound 26]
- time within which degradation of CDK4/6 was induced (CDK4/6; B16F10 cells, 0.5 μM): ≤ 12 h
- degradation activity (rank among the HEMTACs) (CDK4/6; B16F10 melanoma cells, 24 h): highest degradation activity
- anti-tumor effect compared with BIIB021 (20 mg/kg) (mouse B16F10 melanoma; 20 mg/kg, intraperitoneally every day for two weeks): better than that of HSP90 inhibitor BIIB021
- growth of melanoma (mouse B16F10 melanoma; 40 mg/kg, intraperitoneally every day for two weeks): significantly inhibit the growth of melanoma
- other signs of toxicity (mouse B16F10 melanoma; all treatment groups): no other signs of toxicity
- body weight of mice (mouse B16F10 melanoma; intraperitoneally every day for two weeks): slight weight loss
- anti-melanoma effect in vivo (mouse B16F10 melanoma; mouse B16F10 melanoma model, FIG. 4 legend, no dose given): significant anti-melanoma effect
- DC50 (CDK4): ~26 nM
- DC50 (CDK6): ~19 nM

From patent US20240252657A1, “HEMTAC SMALL-MOLECULE DEGRADATION AGENT AND APPLICATION THEREOF” (SHANDONG UNIVERSITY, priority 2022, published 2024)
